Measurements as given in patent US7446199B2, “Compositions useful as inhibitors of protein kinases” (Vertex Pharmaceuticals Incorporated, priority 2003, dated 2008).

Assays:
FLT-3 = molecular target: T1, FLT-3 (Homo sapiens, UniProt P36888); experiment: Inhibition of FLT-3, radiometric filter-binding assay; type: biochemical; conditions: 90 μM ATP, 0.5 mg/mL pE4Y, room temperature
T1 construct: 0.02% BSA and 3 nM FLT-3
T1 sequence (P36888 27-993): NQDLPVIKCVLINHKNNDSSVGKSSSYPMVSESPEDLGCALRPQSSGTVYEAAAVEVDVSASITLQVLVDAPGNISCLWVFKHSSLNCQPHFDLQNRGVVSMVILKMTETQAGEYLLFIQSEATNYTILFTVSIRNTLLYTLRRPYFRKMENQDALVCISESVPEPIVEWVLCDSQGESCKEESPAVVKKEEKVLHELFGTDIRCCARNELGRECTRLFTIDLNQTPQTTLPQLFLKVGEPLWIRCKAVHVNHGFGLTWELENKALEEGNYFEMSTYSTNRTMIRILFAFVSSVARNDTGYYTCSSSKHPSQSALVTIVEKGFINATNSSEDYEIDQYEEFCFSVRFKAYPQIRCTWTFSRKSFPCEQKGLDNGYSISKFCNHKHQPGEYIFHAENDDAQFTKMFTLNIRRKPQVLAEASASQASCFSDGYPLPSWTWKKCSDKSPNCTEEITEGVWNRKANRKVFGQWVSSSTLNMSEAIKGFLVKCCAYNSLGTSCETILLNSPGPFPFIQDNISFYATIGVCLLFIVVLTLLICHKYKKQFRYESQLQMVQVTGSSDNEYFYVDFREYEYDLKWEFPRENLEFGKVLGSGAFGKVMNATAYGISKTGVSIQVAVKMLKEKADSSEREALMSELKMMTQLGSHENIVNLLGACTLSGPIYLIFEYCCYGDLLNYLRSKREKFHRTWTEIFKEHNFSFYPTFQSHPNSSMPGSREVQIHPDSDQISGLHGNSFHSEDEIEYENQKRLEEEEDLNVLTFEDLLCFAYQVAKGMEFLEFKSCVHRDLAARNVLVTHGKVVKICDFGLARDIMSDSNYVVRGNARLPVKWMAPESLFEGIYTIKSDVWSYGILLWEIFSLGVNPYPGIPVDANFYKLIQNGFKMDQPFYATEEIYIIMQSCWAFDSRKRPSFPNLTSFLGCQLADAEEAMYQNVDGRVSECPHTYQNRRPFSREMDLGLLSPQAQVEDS
Experimental: Compounds were screened for their ability to inhibit FLT-3 activity using a radiometric filter-binding assay. This assay monitors the ^33P incorporation into a substrate poly(Glu, Tyr) 4:1 (pE4Y). Reactions were carried out in a solution containing 100 mM HEPES (pH 7.5), 10 mM MgCl2, 25 mM NaCl, 1 mM DTT, 0.01% BSA and 2.5% DMSO. Final substrate concentrations in the assay were 90 μM ATP and 0.5 mg/mL pE4Y (both from Sigma Chemicals, St Louis, Mo.). The final concentration of compounds is generally between 0.01 and 5 μM. Typically, a 12-point titration was conducted by preparing serial dilutions from 10 mM DMSO stock of test compound. Reactions were carried out at room temperature.
Two assay solutions were prepared. Solution 1 contains 100 mM HEPES (pH 7.5), 10 mM MgCl2, 25 mM NaCl, 1 mg/ml pE4Y and 180 μM ATP(containing 0.3 μCi of [γ-^33P]ATP for each reaction). Solution 2 contains 100 mM HEPES (pH 7.5), 10 mM MgCl2, 25 mM NaCl, 2 mM DTT, 0.02% BSA and 3 nM FLT-3. The assay was run on a 96 well plate by mixing 50 μL each of Solution 1 and […] of the test compounds. The reaction was initiated with Solution2. After incubation for 20 minutes at room temperature, the reaction was stopped with 50 μL of 20% TCA containing 0.4 mM of ATP. All of the reaction volume was then transferred to a filter plate and washed with 5% TCA by a Harvester9600 from TOMTEC (Hamden, Conn.). The amount of ^33P incorporation into pE4y was analyzed by a Packard TopCount Microplate Scintillation Counter (Meriden, Conn.). The data was fitted using Prism software to get an IC50 or Ki.

KDR = KDR (Homo sapiens, UniProt P35968); experiment: KDR enzyme assay, coupled enzyme assay; type: biochemical; conditions: 300 μM ATP, 10 μM poly E4Y, 30 nM KDR, 37° C.
Experimental: Compounds were screened for their ability to inhibit KDR using a standard coupled enzyme assay (Fox et al., Protein Sci., (1998) 7, 2249). Assays were carried out in a mixture of 200 mM HEPES 7.5, 10 mM MgCl2, 25 mM NaCl, 1 mM DTT and 1.5% DMSO. Final substrate concentrations in the assay were 300 μM ATP (Sigma Chemicals) and 10 μM poly E4Y (Sigma). Assays were carried out at 37° C. and 30 nM KDR. Final concentrations of the components of the coupled enzyme system were 2.5 mM phosphoenolpyruvate, 200 μM NADH, 30 μg/ML pyruvate kinase and 10 μg/ml lactate dehydrogenase.
An assay stock buffer solution was prepared containing all of the reagents listed above, with the exception of ATP and the test compound of interest. 177 μl of the stock solution was placed in a 96 well plate followed by addition of 3 μl of 2 mM DMSO stock containing the test compound (final compound concentration 30 μM). The plate was preincubated for about 10 minutes at 37° C. and the reaction initiated by addition of 20 μl of ATP (final concentration 300 μM). Rates of reaction were obtained using a Molecular Devices plate reader (Sunnyvale, Calif.) over a 5 minute read time at 37° C.

Chain of KDR (P35968 20-1356): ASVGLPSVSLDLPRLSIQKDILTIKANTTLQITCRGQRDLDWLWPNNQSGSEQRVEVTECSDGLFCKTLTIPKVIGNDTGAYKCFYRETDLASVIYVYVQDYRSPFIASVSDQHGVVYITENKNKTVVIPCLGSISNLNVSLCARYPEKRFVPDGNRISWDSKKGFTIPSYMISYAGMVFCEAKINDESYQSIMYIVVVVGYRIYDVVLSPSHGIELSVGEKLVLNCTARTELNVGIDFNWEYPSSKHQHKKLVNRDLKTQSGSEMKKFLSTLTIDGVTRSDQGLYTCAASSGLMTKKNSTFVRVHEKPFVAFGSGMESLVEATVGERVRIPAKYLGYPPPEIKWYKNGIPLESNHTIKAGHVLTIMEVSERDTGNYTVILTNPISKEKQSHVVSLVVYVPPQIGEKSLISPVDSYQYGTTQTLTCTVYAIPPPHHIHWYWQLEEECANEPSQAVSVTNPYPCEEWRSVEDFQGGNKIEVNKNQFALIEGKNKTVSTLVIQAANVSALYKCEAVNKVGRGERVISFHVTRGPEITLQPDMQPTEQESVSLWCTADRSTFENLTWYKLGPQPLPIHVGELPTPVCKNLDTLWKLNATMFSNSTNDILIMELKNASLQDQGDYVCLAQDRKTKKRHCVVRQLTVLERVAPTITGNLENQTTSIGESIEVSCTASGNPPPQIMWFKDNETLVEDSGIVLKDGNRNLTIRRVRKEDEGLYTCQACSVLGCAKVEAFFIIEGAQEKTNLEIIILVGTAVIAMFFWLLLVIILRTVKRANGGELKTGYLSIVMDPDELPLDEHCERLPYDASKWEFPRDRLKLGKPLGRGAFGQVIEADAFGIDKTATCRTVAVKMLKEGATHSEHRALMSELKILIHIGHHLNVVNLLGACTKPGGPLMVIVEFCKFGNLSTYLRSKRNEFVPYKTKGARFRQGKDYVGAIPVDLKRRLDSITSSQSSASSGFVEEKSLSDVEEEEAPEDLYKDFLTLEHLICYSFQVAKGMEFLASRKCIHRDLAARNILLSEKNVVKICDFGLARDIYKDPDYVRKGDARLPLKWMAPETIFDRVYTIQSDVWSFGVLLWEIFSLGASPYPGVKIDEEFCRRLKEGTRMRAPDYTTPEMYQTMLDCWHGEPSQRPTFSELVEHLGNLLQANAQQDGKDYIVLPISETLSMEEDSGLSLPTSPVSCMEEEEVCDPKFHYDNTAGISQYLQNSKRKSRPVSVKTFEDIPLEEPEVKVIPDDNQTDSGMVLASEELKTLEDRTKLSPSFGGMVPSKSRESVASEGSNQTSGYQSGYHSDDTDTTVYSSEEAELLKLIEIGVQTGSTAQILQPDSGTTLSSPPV

Row | Compound | Ki (FLT-3) [nM] | Ki (KDR) [nM]
1 | Clc1cccc(-c2cnoc2-c2c[nH]c3ncccc23)c1Cl [Compound 2, 3-[4-(2,3-Dichloro-phenyl)-isoxazol-5-yl]-1H-pyrrolo[2,3-b]pyridine] | 1000 to 12500 | 200 to 1000
2 | Fc1cccc(Cc2cnoc2-c2c[nH]c3ncccc23)c1F [Compound 36, 3-[4-(2,3-Difluoro-benzyl)-isoxazol-5-yl]-1H-pyrrolo[2,3-b]pyridine] | 1000 to 12500 | 1000 to 12500
3 | Fc1c(Cl)cccc1-c1cnoc1-c1c[nH]c2ncccc12 [Compound 42, 3-[4-(3-Chloro-2-fluoro-phenyl)-isoxazol-5-yl]-1H-pyrrolo[2,3-b]pyridine] | 1000 to 12500 | 200 to 1000
4 | CN(C)c1ccnc2[nH]cc(-c3oncc3-c3cccc(F)c3F)c12 [Compound 56, {3-[4-(2,3-Difluoro-phenyl)-isoxazol-5-yl]-1H-pyrrolo[2,3-b]pyridin-4-yl}-dimethyl-amine] | 1000 to 12500 | 200 to 1000
5 | CN1CCC(c2cnc3[nH]cc(-c4oncc4-c4cccc(F)c4F)c3c2)CC1 [Compound 60, 3-[4-(2,3-Difluoro-phenyl)-isoxazol-5-yl]-5-(1-methyl-piperidin-4-yl)-1H-pyrrolo[2,3-b]pyridine] | 1000 to 12500 | –
6 | Fc1cccc(-c2cnoc2-c2c[nH]c3ncc(C4CCNCC4)cc23)c1F [Compound 62, 3-[4-(2,3-Difluoro-phenyl)-isoxazol-5-yl]-5-piperidin-4-yl-1H-pyrrolo[2,3-b]pyridine] | 200 to 1000 | 1000 to 12500
7 | CC(=O)N1CCC(c2cnc3[nH]cc(-c4oncc4-c4cccc(F)c4F)c3c2)CC1 [Compound 63, 1-(4-{3-[4-(2,3-Difluoro-phenyl)-isoxazol-5-yl]-1H-pyrrolo[2,3-b]pyridin-5-yl}-piperidin-1-yl)-ethanone] | 200 to 1000 | 1000 to 12500
8 | N#CCC(=O)N1CCC(c2cnc3[nH]cc(-c4oncc4-c4cccc(F)c4F)c3c2)CC1 [Compound 64, 3-(4-{3-[4-(2,3-Difluoro-phenyl)-isoxazol-5-yl]-1H-pyrrolo[2,3-b]pyridin-5-yl}-piperidin-1-yl)-3-oxo-propionitrile] | 200 to 1000 | 1000 to 12500
9 | C=Cc1cnc2[nH]cc(-c3oncc3-c3cccc(F)c3F)c2c1 [Compound 66, 3-[4-(2,3-Difluoro-phenyl)-isoxazol-5-yl]-5-vinyl-1H-pyrrolo[2,3-b]pyridine] | 200 to 1000 | < 200
10 | CCN1CCC(c2cnc3[nH]cc(-c4oncc4-c4cccc(F)c4F)c3c2)CC1 [Compound 72, 3-[4-(2,3-Difluoro-phenyl)-isoxazol-5-yl]-5-(1-ethyl-piperidin-4-yl)-1H-pyrrolo[2,3-b]pyridine] | 1000 to 12500 | –
11 | Cn1ccc2c(-c3oncc3-c3cccc(F)c3F)c[nH]c2c1=O [Compound 144, 3-[4-(2,3-Difluoro-phenyl)-isoxazol-5-yl]-6-methyl-1,6-dihydro-pyrrolo[2,3-c]pyridin-7-one] | 1000 to 12500 | –
12 | Nc1[nH]c2ncccc2c1-c1oncc1-c1cccc(F)c1F [Compound 152] | 1000 to 12500 | –

The next lines start with the values.

Row | Ki (FLT-3) [nM] | Ki (KDR) [nM] | Compound
13 | 200 to 1000 | – | CN1CCN(C(=O)[C@H]2C[C@H]2c2cnc3[nH]cc(-c4oncc4-c4cccc(F)c4F)c3c2)CC1 (relative stereo) [Compound 143, cis-(2-{3-[4-(2,3-Difluoro-phenyl)-isoxazol-5-yl]-1H-pyrrolo[2,3-b]pyridin-5-yl}-cyclopropyl)-(4-methyl-piperazin-1-yl)-methanone]
14 | 200 to 1000 | 1000 to 12500 | Fc1cccc(-c2cnoc2-c2c[nH]c3ncccc23)c1F [Compound 1, 3-[4-(2,3-Difluoro-phenyl)-isoxazol-5-yl]-1H-pyrrolo[2,3-b]pyridine]
15 | < 200 | 200 to 1000 | COc1cnc2[nH]cc(-c3oncc3-c3cccc(F)c3F)c2c1 [Compound 38, 3-[4-(2,3-Difluoro-phenyl)-isoxazol-5-yl]-5-methoxy-1H-pyrrolo[2,3-b]pyridine]
16 | 200 to 1000 | 200 to 1000 | Oc1cnc2[nH]cc(-c3oncc3-c3cccc(F)c3F)c2c1 [Compound 43, 3-[4-(2,3-Difluoro-phenyl)-isoxazol-5-yl]-1H-pyrrolo[2,3-b]pyridin-5-ol]
17 | 200 to 1000 | 1000 to 12500 | c1cnc2[nH]cc(-c3oncc3C3CCCCC3)c2c1 [Compound 47, 3-(4-Cyclohexyl-isoxazol-5-yl)-1H-pyrrolo[2,3-b]pyridine]
18 | 200 to 1000 | < 200 | Oc1cnc2[nH]cc(-c3oncc3-c3cccc(Cl)c3Cl)c2c1 [Compound 48, 3-[4-(2,3-Dichloro-phenyl)-isoxazol-5-yl]-1H-pyrrolo[2,3-b]pyridin-5-ol]
19 | 200 to 1000 | < 200 | COc1cnc2[nH]cc(-c3oncc3-c3cccc(Cl)c3Cl)c2c1 [Compound 49, 3-[4-(2,3-Dichloro-phenyl)-isoxazol-5-yl]-5-methoxy-1H-pyrrolo[2,3-b]pyridine]
20 | 200 to 1000 | 200 to 1000 | CN(C)CC#Cc1cnc2[nH]cc(-c3oncc3-c3cccc(F)c3F)c2c1 [Compound 53, (3-{3-[4-(2,3-Difluoro-phenyl)-isoxazol-5-yl]-1H-pyrrolo[2,3-b]pyridin-5-yl}-prop-2-ynyl)-dimethyl-amine]
21 | < 200 | 200 to 1000 | Fc1cccc(-c2cnoc2-c2c[nH]c3ncc(-c4ccncc4)cc23)c1F [Compound 57, 3-[4-(2,3-Difluoro-phenyl)-isoxazol-5-yl]-5-pyridin-4-yl-1H-pyrrolo[2,3-b]pyridine]
22 | 200 to 1000 | < 200 | Fc1cccc(-c2cnoc2-c2c[nH]c3ncc(-c4ccccc4)cc23)c1F [Compound 58, 3-[4-(2,3-Difluoro-phenyl)-isoxazol-5-yl]-5-phenyl-1H-pyrrolo[2,3-b]pyridine]
23 | < 200 | 200 to 1000 | Fc1cccc(-c2cnoc2-c2c[nH]c3ncc(-c4cccnc4)cc23)c1F [Compound 59, 3-[4-(2,3-Difluoro-phenyl)-isoxazol-5-yl]-5-pyridin-3-yl-1H-pyrrolo[2,3-b]pyridine]
24 | 200 to 1000 | 200 to 1000 | CN(C)c1cccc(-c2cnc3[nH]cc(-c4oncc4-c4cccc(F)c4F)c3c2)c1 [Compound 61, (3-{3-[4-(2,3-Difluoro-phenyl)-isoxazol-5-yl]-1H-pyrrolo[2,3-b]pyridin-5-yl}-phenyl)-dimethyl-amine]
25 | < 200 | < 200 | CC(=O)Nc1cccc(-c2cnc3[nH]cc(-c4oncc4-c4cccc(F)c4F)c3c2)c1 [Compound 65, N-(3-{3-[4-(2,3-Difluoro-phenyl)-isoxazol-5-yl]-1H-pyrrolo[2,3-b]pyridin-5-yl}-phenyl)-acetamide]
